Consider 41 molecules from patent US11731985B2, “Compositions and methods for treating cancer” (Hb Therapeutics Inc., priority 2018, dated 2023).

A word on the IC50: it is the concentration that inhibits the measured activity by half.

In one series the test system is LN229 cells. The series is described as follows: Cell viability assay, LN229 cells. The series is classed as cell-based, human. Particulars: for IC50: read-out: Inhibition of Cancer Cell Growth (IC50). The method, then: Each of the compounds was used to treat the cancer LN229 cells and examined first by western and dot blot assays for the degradation of SUMO1 protein and then by cell viability assay for the IC50 values of anticancer activity.
(§1) LN229 cell were treated with a series of dilutions of CPD1 and examined by cell viability assay for cell growth inhibition (FIG. 2B). […] Therefore, CPD1 acts as the degrader of SUMO1 protein and inhibitor of SUMO1 conjugation in cancer cells.

The test system of series [1] is SUMO1. The series is described as follows: Ubiquitination of Flag-SUMO1 (immunoprecipitation, western blot) in co-transfected LN229 cells. The series is classed as cell-based, human. The following applies: LN229 cells co-transfected with Flag-SUMO1-GV and HA-UB-WT. An excerpt:
(§2) The non-conjugated Flag-tagged SUMO1 (Flag-SUMO1-GV) and the HA-tagged wild type (WT) UB (HA-UB-WT) were co-transfected in LN229 cells.
(A western blot detects proteins with antibodies after separation by electrophoresis.)

The next series has as its system colon HCT116 xenografts. Put plainly: Subcutaneous xenografts of colon HCT116 cancer cell line in nude mice. The series is classed as in vivo. The method, then:
(§3) For the therapeutic effects of the compounds, we examined the effects of CPD1 and CPD24 on various types of cancer xenografts in mice. […] NOD/SCID mice bearing intracranial brain xenografts of glioblastoma LN229 cell line were treated with CPD1.

The subject of another series is lung A549 xenografts. The series is described as follows: Subcutaneous xenografts of lung A549 cancer cell line in nude mice. The series is classed as in vivo. The procedure: as §3
The test system of series [2] is colon cancer PDX (L1206F). Put plainly: Patient derived xenograft of colon cancer (L1206F). The series is classed as in vivo, mice.
From the text: (§4) The left two graphs show data for compounds CPD1 and the middle two graphs show data for CPD24 treatment of colon cancer PDX (L1206F). […] The right two graphs show data for compound CPD1 and CPD24 treatment of lung cancer PDX (L1102F). […] The significance of **P<0.01, and ***P<0.001 was statistically analyzed.
as §3
(In general: In xenograft studies the graft and the host belong to different species.)

A further series concerns lung cancer PDX (L1102F). Put plainly: Patient derived xenograft of lung cancer (L1102F). The series is classed as in vivo, mice.
From the text: as §4, §3

The nature of series [3]: Tolerability across all xenograft mice. The series is classed as in vivo. Particulars: over the treatment period. The method, then:
as §3

For series [4], the target named is T1, SUMO1 (Homo sapiens, UniProt P63165). The series is described as follows: Western and dot blot of normal lung epithelial Nuli-1 and lung cancer cells. The series is classed as cell-based. Further details: CPD24 treatment reduces SUMO1 conjugation and total levels of SUMO1 protein in the cancer but not normal cells; endogenous in cells.
T1 sequence (P63165 1-97 limits assumed): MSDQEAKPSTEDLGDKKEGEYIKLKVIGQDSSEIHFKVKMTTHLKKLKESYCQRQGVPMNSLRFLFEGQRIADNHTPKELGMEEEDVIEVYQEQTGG
Series [5] has as its target T1, SUMO1. Put plainly: Western and dot blot assays for SUMO1 conjugation and SUMO1 protein levels in LN229 cells. The arrangement: analyzed by western blotting for detection of the conjugate and free form of SUMO1 protein and dot blotting for total levels of SUMO1 protein; endogenous in cells; host or cells: LN229 glioblastoma cells. Particulars: LN229 cells treated with CPD1, followed by MG132. The series is classed as cell-based. The procedure: FIG. 2A illustrates how the glioblastoma LN229 cell line was treated with each of compounds of the National Cancer Institute (NCI) Diversity Set IV library and analyzed by western blot assays using SUMO1, SUMO2/3, UB and β-actin antibodies.
as §1, §2

Setting [6] is: Homo sapiens, LN-229, LN229 cells.

Read-outs that look alike come from different tables or passages of the source. Where a SMILES comes first, the peptide text is derived from it. The star is where a group is joined. Cbz = O=C(OCc1ccccc1)*

`N#Cc1ccc2nc(NC(=O)Nc3cccc(Cl)c3)sc2c1` [Compound 24, 1-(3-chlorophenyl)-3-(6-cyano-1,3-benzothiazol-2-yl)urea]: the IC50 in the series on LN229 cells (setting [6]) is at most 5 µM. Moreover, the “inhibition of the cell growth, compared with the other representative compounds” value in the series on LN229 cells (LN229 cells, FIG. 3A) is listed as “much more potent in inhibition of the cell growth”. Also, the “poly-ubiquitination of SUMO1 protein” value with SUMO1 [1] is listed as “results in the poly-ubiquitination of SUMO1 protein”. In addition, the xenograft progression result with colon HCT116 xenografts is on record as “significantly suppressed xenograft progression”. Besides, the xenograft progression entry in the series with lung A549 xenografts was “significantly suppressed xenograft progression”. Also, in [2], the “body weight of mice” value is on record as “had no effects on the body weight of mice” and the “tumor growth (tumor sizes)” value is given as “significantly inhibits the tumor growth of the colon cancer PDXs”. Besides, the mouse body weight entry in the series on lung cancer PDX (L1102F) is given as “no effects of the treatment on mouse body weight”. Moreover, the “PDX growth inhibition, potency compared with CPD1” value in the series on lung cancer PDX (L1102F) (CPD24 25 and 50 mg/kg versus CPD1 100 mg/kg) is on record as “more potent”. In the series with lung cancer PDX (L1102F) (CPD24 25 and 50 mg/kg, CPD1 100 mg/kg), the PDX growth result was “markedly inhibits the PDX growth”. Also, the “tolerability, clinical signs” value in [3] was “well tolerated over the treatment period with no clinical signs of lethargy, ataxia, paralysis, seizure or weight loss”. Further, the “SUMO1 conjugation and total SUMO1 protein in normal versus cancer cells” value on SUMO1 [4] was “reduces SUMO1 conjugation and total levels of SUMO1 protein only in cancer cells”.

Consider `CC(C)C[C@@H](C=O)NC(=O)[C@H](CC(C)C)NC(=O)[C@H](CC(C)C)NC(=O)OCc1ccccc1` [MG132, reference compound] (Cbz-Leu-Leu-Leu-aldehyde), for which the “effect of MG132 on CPD1-induced degradation of SUMO1 protein” value on SUMO1 [5] is recorded as “prevents CPD1-induced degradation of SUMO1 protein”.

Consider `CC(C)(C)OC(=O)NCCOCCOc1cccc(NC(=O)Nc2nc3ccc(C#N)cc3s2)c1` [Compound 120], for which the IC50 in the series on LN229 cells (LN229 cells) was at most 5 µM.

As to `CC(C(=O)Nc1nc2ccc(C#N)cc2s1)c1ccccc1` (stereo not shown) [Compound 54], the IC50 in the series on LN229 cells (setting [6]) is above 20 µM.

In the case of `CC(=O)Nc1ccc2nc(NC(=O)Nc3cccc(C#N)c3)sc2c1` [Compound 75], in the series with LN229 cells (setting [6]), the IC50 was above 20 µM.

On to `N#Cc1cccc(NC(=O)Nc2nc3c(s2)CC(N)CC3)c1` (stereo not shown) [Compound 67], for which the IC50 with LN229 cells (setting [6]) is at most 20 µM.

On to `N#Cc1cccc(NC(=O)Nc2nc3c(Cl)cc(Cl)cc3s2)c1` [Compound 101], for which the IC50 in the series on LN229 cells (setting [6]) was at most 5 µM.

As for `Cc1nc2ccc(NC(=O)Nc3cccc([N+](=O)[O-])c3)cc2s1` [Compound 22], the IC50 in the series with LN229 cells (setting [6]) was at most 20 µM.

With `N#Cc1cc(F)cc(NC(=O)Nc2nc3ccc(Cl)cc3s2)c1` [Compound 105], the IC50 in the series on LN229 cells (setting [6]) is at most 5 µM.

Turning to `CCc1ccc(NC(=O)Nc2nc3ccc(C#N)cc3s2)cc1` [Compound 39], the IC50 with LN229 cells (LN229 cells) is at most 5 µM.

Turning to `N#Cc1cccc(NC(=O)Nc2nc3ccc(N)cc3s2)c1` [Compound 77], the IC50 in the series with LN229 cells (setting [6]) was above 20 µM.

Consider `N#Cc1ccc2nc(NC(=O)Nc3cccc(Br)c3)sc2c1` [Compound 31, 1-(3-bromophenyl)-3-(6-cyano-1,3-benzothiazol-2-yl)urea], for which, in the series on LN229 cells (setting [6]), the IC50 is at most 5 µM.

Regarding `N#Cc1ccc2nc(NC(=O)Nc3ccccc3)sc2c1` [Compound 45], the IC50 in the series on LN229 cells (setting [6]) was at most 5 µM.

Regarding `O=C(Nc1cccc([N+](=O)[O-])c1)Nc1nc2c(Cl)cccc2s1` [Compound 12], in the series with LN229 cells (setting [6]), the IC50 is at most 20 µM.

With `CC(C)(C)OC(=O)NC1CCc2nc(NC(=O)Nc3cccc(C#N)c3)sc2C1` (stereo not shown) [Compound 61], the IC50 in the series on LN229 cells (setting [6]) is at most 5 µM.

For the molecule `O=C(Nc1ccc(Cl)c(Cl)c1)Nc1nc2ccc([N+](=O)[O-])cc2s1` [Compound 2], the IC50 in the series with LN229 cells (setting [6]) is at most 5 µM.

In the case of `CC(C)(C(=O)Nc1nc2ccc(C#N)cc2s1)c1ccccc1` [Compound 56], in the series with LN229 cells (setting [6]), the IC50 is above 20 µM.

For `CC(C)(C)OC(=O)N1CCc2nc(NC(=O)Nc3cccc(C#N)c3)sc2C1` [Compound 49], the IC50 in the series with LN229 cells (setting [6]) was at most 20 µM.

As to `O=C(Nc1nc2ccccc2s1)Nc1ccccc1Cl` [Compound 8], the IC50 in the series on LN229 cells (setting [6]) is above 20 µM.

For `N#Cc1cccc(NC(=O)Nc2nc3ccc(F)cc3s2)c1` [Compound 70], in the series on LN229 cells (setting [6]), the IC50 is at most 5 µM.

As for `COc1cccc(NC(=O)Nc2nc3ccc(C#N)cc3s2)c1` [Compound 38], in the series on LN229 cells (setting [6]), the IC50 was at most 5 µM.

For the molecule `CN(C)C1CCc2nc(NC(=O)Nc3cccc(C#N)c3)sc2C1` (stereo not shown) [Compound 69], the IC50 with LN229 cells (setting [6]) is at most 20 µM.

Turning to `CS(=O)(=O)c1ccc2nc(NC(=O)Nc3cccc(Cl)c3)sc2c1` [Compound 20], the IC50 in the series with LN229 cells (setting [6]) was above 20 µM.

For the molecule `COc1cc(NC(=O)Nc2nc3ccc(C#N)cc3s2)ccn1` [Compound 71], in the series with LN229 cells (setting [6]), the IC50 was at most 5 µM.

For `N#Cc1cccc(NC(=O)Nc2nc3c(s2)CCCC3)c1` [Compound 59], the IC50 with LN229 cells (setting [6]) is at most 20 µM.

For the molecule `N#Cc1ccc(NC(=O)Nc2nc3ccc(Cl)cc3s2)cc1Cl` [Compound 118], the IC50 with LN229 cells (setting [6]) was at most 5 µM.

In the case of `N#Cc1ccc2nc(NC(=O)Nc3ccc4[nH]c(=O)[nH]c4c3)sc2c1` [Compound 108], the IC50 with LN229 cells (setting [6]) is above 20 µM.

For `N#Cc1cc(Cl)cc(NC(=O)Nc2nc3ccc(C(F)(F)F)cc3s2)c1` [Compound 115], the IC50 in the series on LN229 cells (setting [6]) was at most 5 µM.

Take `N#Cc1ccc(F)c(NC(=O)Nc2nc3ccc(Cl)cc3s2)c1` [Compound 96]: the IC50 with LN229 cells (setting [6]) was at most 5 µM.

For the molecule `O=C(Nc1cccc(Cl)c1)Nc1nc2ccc([N+](=O)[O-])cc2s1` [Compound 19], the IC50 in the series with LN229 cells (LN229 cells) was above 20 µM.

In the case of `CS(=O)(=O)c1ccc2nc(NC(=O)Nc3cccc(C#N)c3)sc2c1` [Compound 114], the IC50 with LN229 cells (setting [6]) is at most 20 µM.

Take `N#Cc1ccc(NC(=O)Nc2nc3ccc(Cl)cc3s2)c(Cl)c1` [Compound 104]: the IC50 in the series with LN229 cells (setting [6]) was at most 5 µM.

Turning to `O=C(Nc1cccc(Cl)c1)Nc1nc2ccc([N+](=O)[O-])cc2s1` [Compound 3], the IC50 in the series on LN229 cells (LN229 cells) is at most 5 µM.

As for `N#Cc1cc(F)cc(NC(=O)Nc2nc3ccc(C(F)(F)F)cc3s2)c1` [Compound 113, 1-(3-cyano-5-fluorophenyl)-3-[6-(trifluoromethyl)-1,3-benzothiazol-2-yl]urea], in the series with LN229 cells (setting [6]), the IC50 was at most 5 µM.

As for `CCOC(=O)C1CCc2nc(NC(=O)Nc3cccc(C#N)c3)sc2C1` (stereo not shown) [Compound 79], in the series with LN229 cells (setting [6]), the IC50 is above 20 µM.

On to `CC(C)(C)OC(=O)N[C@H]1CCc2nc(NC(=O)Nc3cccc(C#N)c3)sc2C1` [Compound 63], for which the IC50 in the series on LN229 cells (setting [6]) was at most 20 µM.

Take `N#Cc1cccc(NC(=O)Nc2nc3c(F)cc(F)cc3s2)c1` [Compound 102]: the IC50 in the series with LN229 cells (setting [6]) was at most 5 µM.

Regarding `O=C(Nc1ccc(F)c([N+](=O)[O-])c1)Nc1nc2c(Cl)cccc2s1` [Compound 17], the IC50 in the series with LN229 cells (setting [6]) is above 20 µM.

Consider `N#Cc1ccc2nc(NC(=O)NCc3ccccc3)sc2c1` [Compound 73], for which the IC50 in the series with LN229 cells (setting [6]) is at most 20 µM.

For the molecule `COc1ccc2nc(NC(=O)Nc3cccc(C#N)c3)sc2c1` [Compound 43], the IC50 with LN229 cells (setting [6]) was at most 20 µM.

Take `N#Cc1ccc2nc(NC(=O)Nc3ccc4ccccc4c3)sc2c1` [Compound 110]: the IC50 in the series on LN229 cells (setting [6]) was at most 20 µM.
